Data: US8193184B2, “Substituted sulphonamides, process for their preparation, pharmaceutical composition comprising thereof and their use” (Unimed Pharma, SPOL, S.R.O., priority 2007, dated 2012)
Values joined by “and” are separate entries in the source; they are usually repeats but may differ in a detail not shown here. Equal values may be shown once. Where a name gives a salt, the structure may show the parent alone. Each block holds one compound with its values, some of them ahead of it.

Key:
intraocular pressure = assay: Intraocular pressure changes in vivo after application into the conjunctiva sac (Tono-Pen XL); parameters: species or system rabbit (Chinchilla); settings: for Measured intraocular pressure values, RE, 0.5 h / Measured intraocular pressure values, RE, 0.5 h, Average / Measured intraocular pressure values, RE, 1 h, Average / Measured intraocular pressure values, RE, 1 h / Measured intraocular pressure values, RE, 4 h, Average / Measured intraocular pressure values, RE, 4 h / Measured intraocular pressure values, RE, 7 h, Average / Measured intraocular pressure values, RE, 7 h / Measured intraocular pressure values, RE, 25 h, Average / Measured intraocular pressure values, RE, 25 h / Measured intraocular pressure values, RE, 31 h, Average / Measured intraocular pressure values, RE, 31 h: treated right eye
Description: The basic pharmacologic profile of the compounds of the general formula (I), which was focused on the determination of the intraocular pressure changes, was evaluated in in vivo conditions. In addition to the main potential therapeutic effect, related side responses were also monitored. In the experiments the laboratory animals of chinchilla species were used, because the normotension eye of this animal species provides the best reactivity. Adult male Chinchilla (in the age of one to one and half year), of 2000-3500 g, examined by veterinarian, without disease symptoms, grown under the standard conditions was used as the animal model. The solutions of tested compounds of the general formula (I) were always freshly prepared. The distilled water was used as a control. Measurement apparatus Tono-Pen®XL from Medtronic XOMED was used for measurement of the intraocular pressure. The intraocular pressure values were expressed in mmHg. At the first day of the experiment the solutions of the tested compounds of the general formula (I) were applied twice a day, specifically at 8.00 a.m. and 2.00 p.m. At the second day of the experiment the application was still in the 30th hour (i.e. at the second day at 2.00 p.m.). The solution of each compound was always applied in an amount of 2 drops into the right conjunctiva sac. The left eye served as a control. Into the conjunctiva sac of this eye (left), the same number of drop (2 drops) of distilled water was applied. The distilled water served as placebo. […] Standard requirements were kept in all measurements. The measurements started in the morning at 7.00 a.m. The measurement was accomplished with Tono-Pen® XL apparatus by soft perpendicular touch of the probe to the cornea of the rabbit five times successively. The measurement was accomplished on the both cornea (right and left eyes) before administration of the sample. Thus the normal values of the intraocular pressure for both the right and left eyes were obtained. Then at 8.00 a.m. 2 drops of tested compound were applied in the right eye and 2 drops of the distilled water were applied in the left eye. Further measurements were carried out after half an hour (at 8.30 a.m.), after one hour (at 9.00 a.m.), after four hours (at 12.00), after seven hours (at 3.00 p.m.), after 25 hours (on the second day at 9.00 a.m.) and after 31 hours from the application in the right eye (on the second day at 3.00 p.m). […] Moreover, 2 drops of the tested compound in the right eye and 2 drops of distilled water in the left eye were applied again in the same group of the rabbits in the first day at 2.00 p.m. (i.e. 6 hours after application of the first dose of the compound) and in the second day of the experiment at 2.00 p.m. (i.e. in the 30th hour of the experiment). Thus the changes caused by the repeated administration of the compound can be monitored. For each compound and each concentration 10 independent assays were carried out.

melting point: 122 to 123 °C
SMILES: CCN(CC)CCCNC(=O)c1ccc(S(N)(=O)=O)cc1 (as salt: ammonium) [II-4, 4-Sulfamoyl-N—(N,N-diethylaminopropyl)benzamide]

SMILES: NS(=O)(=O)c1ccc(S(=O)(=O)NCCCN2CCOCC2)cc1 [Compound I-6, N-(Morpholinopropyl)benzene-1,4-bis(sulphonamide)]
Measured intraocular pressure values, RE, 0.5 h (intraocular pressure; I-6 2% solution, 2 drops, 0.5 h after application, individual animals n 1-10, RE average before application (N) 12.9): 7 mmHg (2×) and 8 mmHg and 9 mmHg (4×) and 11 mmHg and 12 mmHg and 15 mmHg
Measured intraocular pressure values, RE, 0.5 h, Average (intraocular pressure; I-6 2%, 0.5 h, average of 10, N RE average 12.9): 9.6 mmHg
Measured intraocular pressure values, RE, 1 h, Average (intraocular pressure; I-6 2%, 1 h, average of 10, N RE average 12.9): 10.3 mmHg
Measured intraocular pressure values, RE, 1 h (intraocular pressure; I-6 2%, 1 h, individual animals, N RE average 12.9): 9 mmHg (3×) and 8 mmHg (2×) and 14 mmHg and 11 mmHg and 10 mmHg and 13 mmHg and 12 mmHg
Measured intraocular pressure values, RE, 4 h, Average (intraocular pressure; I-6 2%, 4 h, average of 10, N RE average 12.9): 8.4 mmHg
Measured intraocular pressure values, RE, 4 h (intraocular pressure; I-6 2%, 4 h, individual animals, N RE average 12.9): 6 mmHg and 8 mmHg (3×) and 9 mmHg and 12 mmHg (2×) and 7 mmHg (3×)
Measured intraocular pressure values, RE, 7 h, Average (intraocular pressure; I-6 2%, 7 h (second dose at 6 h), average of 10, N RE average 12.9): 7.3 mmHg
Measured intraocular pressure values, RE, 7 h (intraocular pressure; I-6 2%, 7 h (second dose at 6 h), individual animals, N RE average 12.9): 8 mmHg (3×) and 10 mmHg (2×) and 5 mmHg (2×) and 6 mmHg (2×) and 7 mmHg
Measured intraocular pressure values, RE, 25 h, Average (intraocular pressure; I-6 2%, 25 h, average of 10, N RE average 12.9): 10.7 mmHg
Measured intraocular pressure values, RE, 25 h (intraocular pressure; I-6 2%, 25 h, individual animals, N RE average 12.9): 9 mmHg (4×) and 12 mmHg (4×) and 15 mmHg and 8 mmHg
Measured intraocular pressure values, RE, 31 h, Average (intraocular pressure; I-6 2%, 31 h (dose at 30 h), average of 10, N RE average 12.9): 10.4 mmHg
Measured intraocular pressure values, RE, 31 h (intraocular pressure; I-6 2%, 31 h (dose at 30 h), individual animals, N RE average 12.9): 10 mmHg (2×) and 9 mmHg (3×) and 11 mmHg (2×) and 13 mmHg and 8 mmHg and 14 mmHg
Measured intraocular pressure values, RE, 0.5 h (intraocular pressure; I-6 2.5% solution, 2 drops, 0.5 h, individual animals n 1-10, N RE average 15.3): 11 mmHg (2×) and 10 mmHg (3×) and 12 mmHg (2×) and 9 mmHg (2×) and 16 mmHg
Measured intraocular pressure values, RE, 0.5 h, Average (intraocular pressure; I-6 2.5%, 0.5 h, average of 10, N RE average 15.3): 11 mmHg
Measured intraocular pressure values, RE, 1 h, Average (intraocular pressure; I-6 2.5%, 1 h, average of 10, N RE average 15.3): 10.5 mmHg
Measured intraocular pressure values, RE, 1 h (intraocular pressure; I-6 2.5%, 1 h, individual animals, N RE average 15.3): 10 mmHg (2×) and 9 mmHg (5×) and 13 mmHg and 16 mmHg and 11 mmHg
Measured intraocular pressure values, RE, 4 h, Average (intraocular pressure; I-6 2.5%, 4 h, average of 10, N RE average 15.3): 10.1 mmHg
Measured intraocular pressure values, RE, 4 h (intraocular pressure; I-6 2.5%, 4 h, individual animals, N RE average 15.3): 8 mmHg and 9 mmHg (3×) and 11 mmHg (3×) and 10 mmHg (2×) and 13 mmHg
Measured intraocular pressure values, RE, 7 h, Average (intraocular pressure; I-6 2.5%, 7 h (second dose at 6 h), average of 10, N RE average 15.3): 9.6 mmHg
Measured intraocular pressure values, RE, 7 h (intraocular pressure; I-6 2.5%, 7 h (second dose at 6 h), individual animals, N RE average 15.3): 9 mmHg (4×) and 8 mmHg (2×) and 10 mmHg and 11 mmHg and 16 mmHg and 7 mmHg
Measured intraocular pressure values, RE, 25 h, Average (intraocular pressure; I-6 2.5%, 25 h, average of 10, N RE average 15.3): 13 mmHg
Measured intraocular pressure values, RE, 25 h (intraocular pressure; I-6 2.5%, 25 h, individual animals, N RE average 15.3): 12 mmHg (3×) and 13 mmHg (3×) and 15 mmHg (2×) and 14 mmHg and 11 mmHg
Measured intraocular pressure values, RE, 31 h, Average (intraocular pressure; I-6 2.5%, 31 h (dose at 30 h), average of 10, N RE average 15.3): 11.2 mmHg
Measured intraocular pressure values, RE, 31 h (intraocular pressure; I-6 2.5%, 31 h (dose at 30 h), individual animals, N RE average 15.3): 9 mmHg (4×) and 10 mmHg (2×) and 16 mmHg and 13 mmHg and 15 mmHg and 12 mmHg

SMILES: NS(=O)(=O)c1ccc(C(=O)NCCCN2CCOCC2)cc1 [II-6, 4-Sulfamoyl-N-(morpholinopropyl)benzamide]
Measured intraocular pressure values, PO, 0.5 h (intraocular pressure; II-6 1% solution, 2 drops, treated right eye (PO), 0.5 h, individual animals n 1-10, N PO average 15.8): 8 mmHg and 11 mmHg (2×) and 10 mmHg (3×) and 9 mmHg (2×) and 14 mmHg (2×)
Measured intraocular pressure values, PO, 0.5 h, Average (intraocular pressure; II-6 1%, treated right eye (PO), 0.5 h, average of 10, N PO average 15.8): 10.6 mmHg
Measured intraocular pressure values, PO, 1 h, Average (intraocular pressure; II-6 1%, treated right eye (PO), 1 h, average of 10, N PO average 15.8): 10.4 mmHg
Measured intraocular pressure values, PO, 1 h (intraocular pressure; II-6 1%, treated right eye (PO), 1 h, individual animals, N PO average 15.8): 7 mmHg and 10 mmHg (3×) and 14 mmHg and 9 mmHg and 8 mmHg and 12 mmHg (3×)
Measured intraocular pressure values, PO, 4 h, Average (intraocular pressure; II-6 1%, treated right eye (PO), 4 h, average of 10, N PO average 15.8): 9.6 mmHg
Measured intraocular pressure values, PO, 4 h (intraocular pressure; II-6 1%, treated right eye (PO), 4 h, individual animals, N PO average 15.8): 12 mmHg and 10 mmHg and 9 mmHg and 11 mmHg (2×) and 8 mmHg (3×) and 6 mmHg and 13 mmHg
Measured intraocular pressure values, PO, 7 h, Average (intraocular pressure; II-6 1%, treated right eye (PO), 7 h (second dose at 6 h), average of 10, N PO average 15.8): 9.1 mmHg
Measured intraocular pressure values, PO, 7 h (intraocular pressure; II-6 1%, treated right eye (PO), 7 h (second dose at 6 h), individual animals, N PO average 15.8): 8 mmHg (2×) and 9 mmHg (3×) and 11 mmHg and 6 mmHg (2×) and 13 mmHg and 12 mmHg
Measured intraocular pressure values, PO, 25 h, Average (intraocular pressure; II-6 1%, treated right eye (PO), 25 h, average of 10, N PO average 15.8): 13.7 mmHg
Measured intraocular pressure values, PO, 25 h (intraocular pressure; II-6 1%, treated right eye (PO), 25 h, individual animals, N PO average 15.8): 13 mmHg (3×) and 16 mmHg (2×) and 18 mmHg and 12 mmHg (4×)
Measured intraocular pressure values, PO, 31 h, Average (intraocular pressure; II-6 1%, treated right eye (PO), 31 h (dose at 30 h), average of 10, N PO average 15.8): 11.1 mmHg
Measured intraocular pressure values, PO, 31 h (intraocular pressure; II-6 1%, treated right eye (PO), 31 h (dose at 30 h), individual animals, N PO average 15.8): 10 mmHg (3×) and 12 mmHg (2×) and 9 mmHg (2×) and 11 mmHg and 14 mmHg (2×)
